Drawing on the OligoGym collection, this text covers 3 h FOB score for 19 substances.

HELM strings list units from the 5' end as sugar, base in round brackets, then linkage (d deoxyribose, r ribose, m 2'-O-methyl, p phosphodiester). Strings are as the collection lists them; they lack the last nucleoside at the 3' end of the tested compound. [moe] = 2'-O-(2-methoxyethyl) (MOE); [sp] = phosphorothioate linkage; [m5C] = 5-methylcytosine

In the series the target is HTT. Description: mouse, dose not given. The conditions noted are these: ASO.

With “RNA1{[moe](T)[sp].[moe](G)p.[moe]([m5C])p.[moe](A)p.[moe](T)p.[moe](T)p.d(A)[sp].d([m5C])[sp].d(T)[sp].d(T)[sp].d(T)[sp].d(T)[sp].d(T)[sp].d(A)[sp].d([m5C])[sp].d(A)[sp].[moe](A)p.[moe](T)[sp].[moe](G)}$$$$ (last 3' nucleoside missing)”, the 3 h FOB score turned out to be 6.5 score 0-7.

For “RNA1{[moe]([m5C])[sp].[moe](A)p.[moe]([m5C])p.[moe](A)p.[moe](G)[sp].d([m5C])[sp].d(T)[sp].d(T)[sp].d(T)[sp].d(T)[sp].d(A)[sp].d(T)[sp].d(T)[sp].d(T)[sp].d([m5C])[sp].[moe]([m5C])p.[moe](A)p.[moe](T)[sp].[moe](A)}$$$$ (last 3' nucleoside missing)”, the 3 h FOB score turned out to be 0 score 0-7. In the case of “RNA1{[moe](G)[sp].[moe]([m5C])p.[moe](A)[sp].[moe](T)[sp].[moe](T)[sp].d(A)[sp].d([m5C])[sp].d(T)[sp].d(T)[sp].d(T)[sp].d(T)[sp].d(T)[sp].d(A)[sp].d([m5C])[sp].d(A)[sp].[moe](A)[sp].[moe](T)p.[moe](G)[sp].[moe](G)}$$$$ (last 3' nucleoside missing)” it was 5.25 score 0-7. In turn, “RNA1{[moe](G)[sp].[moe](G)p.[moe](T)p.[moe](T)p.[moe](A)[sp].d(G)[sp].d(T)[sp].d(T)[sp].d(T)[sp].d(T)[sp].d([m5C])[sp].d([m5C])[sp].d(T)[sp].[moe](T)p.[moe](T)p.[moe](T)[sp].[moe](A)}$$$$ (last 3' nucleoside missing)” registered a 3 h FOB score of 1 score 0-7. The result for “RNA1{[moe](T)[sp].[moe](G)p.[moe]([m5C])p.[moe](T)p.[moe](G)[sp].d([m5C])[sp].d(T)[sp].d([m5C])[sp].d(A)[sp].d([m5C])[sp].d(T)[sp].d([m5C])[sp].d(A)[sp].d(T)[sp].d(T)[sp].[moe](T)p.[moe]([m5C])p.[moe]([m5C])[sp].[moe](A)}$$$$ (last 3' nucleoside missing)” reads 0 score 0-7; that for “RNA1{[moe](G)[sp].[moe](G)p.[moe](T)p.[moe](T)p.[moe](A)[sp].d(G)[sp].d(T)[sp].d(T)[sp].d(T)[sp].d(T)[sp].d([m5C])[sp].d([m5C])[sp].d(T)[sp].d(T)[sp].d(T)[sp].[moe](T)p.[moe](A)p.[moe](T)[sp].[moe](A)}$$$$ (last 3' nucleoside missing)”, 1 score 0-7; that for “RNA1{[moe](G)[sp].[moe](T)p.[moe]([m5C])[sp].[moe](A)[sp].[moe]([m5C])[sp].d(A)[sp].d(G)[sp].d([m5C])[sp].d(T)[sp].d(T)[sp].d(T)[sp].d(T)[sp].d(A)[sp].d(T)[sp].d(T)[sp].[moe](T)[sp].[moe]([m5C])p.[moe]([m5C])[sp].[moe](A)}$$$$ (last 3' nucleoside missing)”, 1.25 score 0-7. Substance “RNA1{[moe]([m5C])[sp].[moe](A)p.[moe]([m5C])p.[moe](T)p.[moe]([m5C])[sp].d(A)[sp].d(T)[sp].d(T)[sp].d(T)[sp].d([m5C])[sp].d([m5C])[sp].d(A)[sp].d([m5C])[sp].d([m5C])[sp].d(T)[sp].[moe](T)p.[moe]([m5C])p.[moe](A)[sp].[moe](G)}$$$$ (last 3' nucleoside missing)” yielded a 3 h FOB score of 0 score 0-7.

Take “RNA1{[moe](T)[sp].[moe](T)p.[moe](G)p.[moe](G)p.[moe](T)p.[moe](T)p.d(A)[sp].d(G)[sp].d(T)[sp].d(T)[sp].d(T)[sp].d(T)[sp].d([m5C])[sp].d([m5C])[sp].d(T)[sp].d(T)[sp].[moe](T)p.[moe](T)[sp].[moe](A)}$$$$ (last 3' nucleoside missing)”: the 3 h FOB score was found to be 0 score 0-7.

Consider “RNA1{[moe](G)[sp].[moe](T)p.[moe](G)p.[moe]([m5C])p.[moe](A)[sp].d(T)[sp].d(T)[sp].d(A)[sp].d([m5C])[sp].d(T)[sp].d(T)[sp].d(T)[sp].d(T)[sp].d(T)[sp].d(A)[sp].[moe]([m5C])p.[moe](A)p.[moe](A)[sp].[moe](T)}$$$$ (last 3' nucleoside missing)”, for which the 3 h FOB score was found to be 1.25 score 0-7.

“RNA1{[moe](A)[sp].[moe](A)p.[moe]([m5C])p.[moe](A)p.[moe](A)[sp].d(A)[sp].d(T)[sp].d(A)[sp].d(T)[sp].d(T)[sp].d(T)[sp].d(T)[sp].d([m5C])[sp].d(A)[sp].d(A)[sp].[moe]([m5C])p.[moe](T)p.[moe](G)[sp].[moe](G)}$$$$ (last 3' nucleoside missing)” gave a 3 h FOB score of 4.5 score 0-7. The result for “RNA1{[moe]([m5C])[sp].[moe](T)p.[moe](A)p.[moe](G)p.[moe](A)[sp].d(G)[sp].d(G)[sp].d(T)[sp].d([m5C])[sp].d(A)[sp].d(T)[sp].d([m5C])[sp].d(T)[sp].d(T)[sp].d([m5C])[sp].[moe](G)p.[moe](G)p.[moe](T)[sp].[moe]([m5C])}$$$$ (last 3' nucleoside missing)” reads 2 score 0-7; that for “RNA1{[moe](G)[sp].[moe](T)p.[moe](G)p.[moe]([m5C])p.[moe](A)p.[moe](T)p.d(T)[sp].d(A)[sp].d([m5C])[sp].d(T)[sp].d(T)[sp].d(T)[sp].d(T)[sp].d(T)[sp].d(A)[sp].d([m5C])[sp].[moe](A)p.[moe](A)[sp].[moe](T)}$$$$ (last 3' nucleoside missing)”, 3 score 0-7; that for “RNA1{[moe](G)[sp].[moe](T)p.[moe]([m5C])p.[moe](A)p.[moe]([m5C])[sp].d(A)[sp].d(G)[sp].d([m5C])[sp].d(T)[sp].d(T)[sp].d(T)[sp].d(T)[sp].d(A)[sp].d(T)[sp].d(T)[sp].[moe](T)p.[moe]([m5C])p.[moe]([m5C])[sp].[moe](A)}$$$$ (last 3' nucleoside missing)”, 1 score 0-7. The result for “RNA1{[moe](G)[sp].[moe]([m5C])p.[moe](T)p.[moe](T)p.[moe](T)p.[moe](G)p.d(A)[sp].d(T)[sp].d(T)[sp].d(T)[sp].d(T)[sp].d(T)[sp].d(A)[sp].d([m5C])[sp].d([m5C])[sp].d(A)[sp].[moe](G)p.[moe](T)[sp].[moe](T)}$$$$ (last 3' nucleoside missing)” reads 0.5 score 0-7; that for “RNA1{[moe](A)[sp].[moe]([m5C])p.[moe](A)p.[moe](G)p.[moe]([m5C])[sp].d(T)[sp].d(T)[sp].d(T)[sp].d(T)[sp].d(A)[sp].d(T)[sp].d(T)[sp].d(T)[sp].d([m5C])[sp].d([m5C])[sp].[moe](A)p.[moe](T)p.[moe](A)[sp].[moe]([m5C])}$$$$ (last 3' nucleoside missing)”, 1 score 0-7. “RNA1{[moe](T)[sp].[moe]([m5C])p.[moe]([m5C])p.[moe](T)p.[moe]([m5C])[sp].d(T)[sp].d(T)[sp].d(T)[sp].d([m5C])[sp].d(A)[sp].d([m5C])[sp].d(T)[sp].d(G)[sp].d([m5C])[sp].d(T)[sp].[moe](T)p.[moe]([m5C])p.[moe](T)[sp].[moe](A)}$$$$ (last 3' nucleoside missing)” yielded a 3 h FOB score of 3 score 0-7. The result for “RNA1{[moe](G)[sp].[moe]([m5C])p.[moe](A)p.[moe](T)p.[moe]([m5C])[sp].d(T)[sp].d(T)[sp].d(G)[sp].d(T)[sp].d(T)[sp].d(T)[sp].d(T)[sp].d(A)[sp].d([m5C])[sp].d([m5C])[sp].[moe](A)p.[moe]([m5C])p.[moe]([m5C])[sp].[moe]([m5C])}$$$$ (last 3' nucleoside missing)” reads 1.5 score 0-7; that for “RNA1{[moe](A)[sp].[moe]([m5C])p.[moe](T)p.[moe]([m5C])p.[moe](A)[sp].d(T)[sp].d(T)[sp].d(T)[sp].d([m5C])[sp].d([m5C])[sp].d(A)[sp].d([m5C])[sp].d([m5C])[sp].d(T)[sp].d(T)[sp].[moe]([m5C])p.[moe](A)p.[moe](G)[sp].[moe]([m5C])}$$$$ (last 3' nucleoside missing)”, 0 score 0-7.
